The kinase profiling compilation of Christmann-Franck et al. (2016)

Key:
Test in all cases: KINOMEscan competition binding
Details in all cases: compound 0.1 µM
CHEK2 (human) = CHEK2 (human) (UniProt O96017)
WEE1 (human) = WEE1 (human) (UniProt P30291)
ULK1 (human) = ULK1 (human) (UniProt O75385)
NEK4 (human) = NEK4 (human) (UniProt P51957)
CSNK1D (human) = CSNK1D (human) (UniProt P48730)
[1] = system: FLT3 (human), P36888 [K663Q]
CDC42BPG (human) = CDC42BPG (human) (UniProt Q6DT37)
DCLK2 (human) = DCLK2 (human) (UniProt Q8N568)
DMPK (human) = DMPK (human) (UniProt Q09013)
MAPK8 (human) = MAPK8 (human) (UniProt P45983)
AKT2 (human) = AKT2 (human) (UniProt P31751)
EGFR (human) = EGFR (human) (UniProt P00533)
ABL1 (human) = ABL1 (human) (UniProt P00519)
RET (human) = RET (human) (UniProt P07949)
ULK2 (human) = ULK2 (human) (UniProt Q8IYT8)
INSR (human) = INSR (human) (UniProt P06213)
CLK4 (human) = CLK4 (human) (UniProt Q9HAZ1)
NEK3 (human) = NEK3 (human) (UniProt P51956)
NUAK2 (human) = NUAK2 (human) (UniProt Q9H093)
LYN (human) = LYN (human) (UniProt P07948)
PRKD2 (human) = PRKD2 (human) (UniProt Q9BZL6)
[2] = system: EGFR (human), P00533 [L861Q]
PRKCI (human) = PRKCI (human) (UniProt P41743)
HIPK4 (human) = HIPK4 (human) (UniProt Q8NE63)
CDK9 (human) = CDK9 (human) (UniProt P50750)
CDK13 (human) = CDK13 (human) (UniProt Q14004)
OXSR1 (human) = OXSR1 (human) (UniProt O95747)
AKT1 (human) = AKT1 (human) (UniProt P31749)
EPHB1 (human) = EPHB1 (human) (UniProt P54762)
STK24 (human) = STK24 (human) (UniProt Q9Y6E0)
ROS1 (human) = ROS1 (human) (UniProt P08922)
MYLK (human) = MYLK (human) (UniProt Q15746)
[3] = target: JAK3 JH1 catalytic (human) (UniProt P52333)
HIPK3 (human) = HIPK3 (human) (UniProt Q9H422)
BMX (human) = BMX (human) (UniProt P51813)
ALK (human) = ALK (human) (UniProt Q9UM73)
MAP3K11 (human) = MAP3K11 (human) (UniProt Q16584)
KDR (human) = KDR (human) (UniProt P35968)
PRKCD (human) = PRKCD (human) (UniProt Q05655)
STK35 (human) = STK35 (human) (UniProt Q8TDR2)
HIPK2 (human) = HIPK2 (human) (UniProt Q9H2X6)

Sequence of MYLK (human) (Q15746 whole entry, looked up): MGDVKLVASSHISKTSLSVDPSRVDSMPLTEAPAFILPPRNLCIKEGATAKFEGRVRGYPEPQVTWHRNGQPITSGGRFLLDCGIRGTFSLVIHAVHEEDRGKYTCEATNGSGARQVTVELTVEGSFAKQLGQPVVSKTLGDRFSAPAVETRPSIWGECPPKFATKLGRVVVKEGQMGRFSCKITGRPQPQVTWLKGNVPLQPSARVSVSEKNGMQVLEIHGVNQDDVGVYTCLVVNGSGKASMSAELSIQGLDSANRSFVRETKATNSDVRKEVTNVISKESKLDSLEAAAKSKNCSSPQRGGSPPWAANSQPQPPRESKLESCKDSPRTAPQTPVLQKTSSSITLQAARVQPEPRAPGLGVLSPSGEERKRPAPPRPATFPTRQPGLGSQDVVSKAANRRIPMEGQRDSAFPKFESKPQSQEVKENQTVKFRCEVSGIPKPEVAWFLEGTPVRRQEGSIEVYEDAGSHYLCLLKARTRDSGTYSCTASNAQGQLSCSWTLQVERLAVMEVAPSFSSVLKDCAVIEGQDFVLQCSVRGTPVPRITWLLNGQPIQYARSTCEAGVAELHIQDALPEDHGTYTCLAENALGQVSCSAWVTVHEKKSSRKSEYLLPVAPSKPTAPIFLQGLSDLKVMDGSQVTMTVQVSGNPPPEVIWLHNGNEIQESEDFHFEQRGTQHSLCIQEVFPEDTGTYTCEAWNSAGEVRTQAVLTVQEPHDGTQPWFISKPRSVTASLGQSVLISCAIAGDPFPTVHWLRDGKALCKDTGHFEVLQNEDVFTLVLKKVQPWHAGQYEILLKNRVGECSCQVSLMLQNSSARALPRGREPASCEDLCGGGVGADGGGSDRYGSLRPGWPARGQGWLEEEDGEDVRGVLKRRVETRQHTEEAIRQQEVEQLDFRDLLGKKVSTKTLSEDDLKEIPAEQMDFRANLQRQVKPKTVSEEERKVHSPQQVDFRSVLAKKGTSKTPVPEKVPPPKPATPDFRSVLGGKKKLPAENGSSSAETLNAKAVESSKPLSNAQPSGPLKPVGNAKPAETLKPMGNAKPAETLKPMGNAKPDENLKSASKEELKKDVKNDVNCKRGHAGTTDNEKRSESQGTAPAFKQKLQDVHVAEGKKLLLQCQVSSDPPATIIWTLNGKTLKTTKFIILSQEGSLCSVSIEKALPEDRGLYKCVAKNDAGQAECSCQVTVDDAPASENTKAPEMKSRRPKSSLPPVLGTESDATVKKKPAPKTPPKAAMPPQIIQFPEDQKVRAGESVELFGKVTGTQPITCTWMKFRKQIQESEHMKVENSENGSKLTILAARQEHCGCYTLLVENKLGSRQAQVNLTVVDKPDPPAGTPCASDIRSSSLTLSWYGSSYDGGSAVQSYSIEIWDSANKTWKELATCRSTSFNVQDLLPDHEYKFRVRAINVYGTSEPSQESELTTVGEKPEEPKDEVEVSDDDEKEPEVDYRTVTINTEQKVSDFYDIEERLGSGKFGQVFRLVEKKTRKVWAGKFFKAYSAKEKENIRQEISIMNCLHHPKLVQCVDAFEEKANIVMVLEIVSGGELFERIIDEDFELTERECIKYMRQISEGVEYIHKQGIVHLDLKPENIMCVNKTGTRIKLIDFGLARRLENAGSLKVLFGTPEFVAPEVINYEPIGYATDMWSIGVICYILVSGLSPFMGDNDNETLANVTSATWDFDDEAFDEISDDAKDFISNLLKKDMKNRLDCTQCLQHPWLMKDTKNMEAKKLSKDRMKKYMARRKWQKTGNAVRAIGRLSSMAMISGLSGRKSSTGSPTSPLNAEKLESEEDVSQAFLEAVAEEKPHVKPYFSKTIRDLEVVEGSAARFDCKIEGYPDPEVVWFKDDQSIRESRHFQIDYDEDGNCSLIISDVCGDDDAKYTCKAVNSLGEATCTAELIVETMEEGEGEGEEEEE
Sequence of JAK3 JH1 catalytic (human) (P52333 whole entry, looked up): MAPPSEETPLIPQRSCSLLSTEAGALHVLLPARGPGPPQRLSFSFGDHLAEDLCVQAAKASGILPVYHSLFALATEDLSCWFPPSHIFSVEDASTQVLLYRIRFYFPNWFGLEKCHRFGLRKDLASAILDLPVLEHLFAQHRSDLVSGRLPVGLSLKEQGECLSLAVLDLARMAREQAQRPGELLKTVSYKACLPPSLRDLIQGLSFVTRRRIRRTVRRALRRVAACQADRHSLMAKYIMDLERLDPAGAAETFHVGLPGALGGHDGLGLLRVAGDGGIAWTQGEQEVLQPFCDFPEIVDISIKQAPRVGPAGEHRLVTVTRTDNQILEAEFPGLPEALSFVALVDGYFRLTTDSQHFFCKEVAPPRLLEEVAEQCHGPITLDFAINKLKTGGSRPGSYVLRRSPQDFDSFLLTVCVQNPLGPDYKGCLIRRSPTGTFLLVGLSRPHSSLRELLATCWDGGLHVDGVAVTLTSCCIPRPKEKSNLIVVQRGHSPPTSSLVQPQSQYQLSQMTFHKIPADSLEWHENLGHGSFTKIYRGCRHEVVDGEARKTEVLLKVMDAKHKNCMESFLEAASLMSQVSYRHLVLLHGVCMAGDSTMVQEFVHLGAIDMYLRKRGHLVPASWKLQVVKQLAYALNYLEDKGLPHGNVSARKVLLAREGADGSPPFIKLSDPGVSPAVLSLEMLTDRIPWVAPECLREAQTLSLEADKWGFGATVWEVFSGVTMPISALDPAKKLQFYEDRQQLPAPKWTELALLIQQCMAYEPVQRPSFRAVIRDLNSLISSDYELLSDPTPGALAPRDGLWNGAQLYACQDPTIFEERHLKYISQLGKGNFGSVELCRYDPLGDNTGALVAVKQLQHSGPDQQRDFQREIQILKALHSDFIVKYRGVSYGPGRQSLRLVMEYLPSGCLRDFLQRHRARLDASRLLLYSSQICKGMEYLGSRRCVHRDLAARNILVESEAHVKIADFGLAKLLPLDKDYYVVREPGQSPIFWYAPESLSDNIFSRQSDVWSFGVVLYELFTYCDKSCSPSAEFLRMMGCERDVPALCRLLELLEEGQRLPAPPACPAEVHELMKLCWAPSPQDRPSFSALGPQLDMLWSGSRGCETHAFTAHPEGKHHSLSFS
Sequence of EPHB1 (human) (P54762 whole entry, looked up): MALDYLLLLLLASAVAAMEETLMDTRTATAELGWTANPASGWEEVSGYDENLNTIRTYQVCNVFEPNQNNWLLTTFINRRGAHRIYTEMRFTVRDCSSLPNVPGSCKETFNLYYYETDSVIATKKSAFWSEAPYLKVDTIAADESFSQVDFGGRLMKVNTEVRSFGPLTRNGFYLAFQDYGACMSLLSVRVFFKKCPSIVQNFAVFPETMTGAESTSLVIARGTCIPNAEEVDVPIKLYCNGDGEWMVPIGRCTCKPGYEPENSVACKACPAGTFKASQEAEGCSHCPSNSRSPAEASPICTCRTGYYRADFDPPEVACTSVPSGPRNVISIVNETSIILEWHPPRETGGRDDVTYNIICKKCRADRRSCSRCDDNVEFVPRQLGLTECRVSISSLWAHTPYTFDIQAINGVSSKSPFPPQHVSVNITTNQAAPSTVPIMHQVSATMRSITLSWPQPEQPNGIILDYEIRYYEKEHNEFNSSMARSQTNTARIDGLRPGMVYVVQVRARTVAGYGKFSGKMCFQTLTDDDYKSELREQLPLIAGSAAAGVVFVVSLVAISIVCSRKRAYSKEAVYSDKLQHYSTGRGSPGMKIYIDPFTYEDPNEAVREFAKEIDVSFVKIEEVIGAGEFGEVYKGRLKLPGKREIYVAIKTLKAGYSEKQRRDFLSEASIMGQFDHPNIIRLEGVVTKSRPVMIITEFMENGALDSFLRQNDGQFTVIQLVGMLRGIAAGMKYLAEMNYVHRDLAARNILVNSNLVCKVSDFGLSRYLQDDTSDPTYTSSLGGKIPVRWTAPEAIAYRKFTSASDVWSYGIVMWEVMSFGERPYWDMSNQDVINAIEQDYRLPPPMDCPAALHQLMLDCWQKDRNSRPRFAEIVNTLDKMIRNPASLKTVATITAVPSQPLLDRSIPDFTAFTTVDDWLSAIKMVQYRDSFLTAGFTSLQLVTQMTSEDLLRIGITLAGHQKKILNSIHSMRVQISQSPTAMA
Sequence of NEK4 (human) (P51957 whole entry, looked up): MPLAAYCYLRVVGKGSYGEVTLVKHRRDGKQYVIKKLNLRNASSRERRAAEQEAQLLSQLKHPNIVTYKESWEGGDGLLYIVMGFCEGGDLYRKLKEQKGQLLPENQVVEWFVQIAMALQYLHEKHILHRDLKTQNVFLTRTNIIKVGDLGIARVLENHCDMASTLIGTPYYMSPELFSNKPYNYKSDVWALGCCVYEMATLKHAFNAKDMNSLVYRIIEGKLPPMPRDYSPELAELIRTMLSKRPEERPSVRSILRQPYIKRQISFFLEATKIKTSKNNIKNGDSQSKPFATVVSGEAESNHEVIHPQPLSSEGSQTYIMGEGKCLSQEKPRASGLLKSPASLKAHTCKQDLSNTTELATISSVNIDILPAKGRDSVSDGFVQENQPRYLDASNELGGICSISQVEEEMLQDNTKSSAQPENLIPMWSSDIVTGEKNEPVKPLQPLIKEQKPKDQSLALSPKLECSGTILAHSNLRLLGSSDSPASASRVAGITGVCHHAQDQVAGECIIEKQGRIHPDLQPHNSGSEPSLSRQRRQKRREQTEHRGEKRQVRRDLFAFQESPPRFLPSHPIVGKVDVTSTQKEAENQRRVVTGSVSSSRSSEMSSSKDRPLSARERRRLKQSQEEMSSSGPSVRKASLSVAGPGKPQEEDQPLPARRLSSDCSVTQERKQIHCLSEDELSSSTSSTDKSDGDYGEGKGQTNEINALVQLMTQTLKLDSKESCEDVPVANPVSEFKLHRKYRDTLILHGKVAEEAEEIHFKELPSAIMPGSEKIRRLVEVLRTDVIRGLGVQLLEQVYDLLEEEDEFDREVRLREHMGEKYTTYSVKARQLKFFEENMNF

For `CCc1ccc(C(=O)Nc2cc(CN3CCN(C)CC3)cc(C(F)(F)F)c2)cc1C#Cc1cnc2ccnn2c1`, the kinase still bound, per cent of control (CHEK2 (human)) was 100%, the kinase still bound, per cent of control (WEE1 (human)) was 100% and the kinase still bound, per cent of control (ULK1 (human)) was 100%. It also gave a kinase still bound, per cent of control (NEK4 (human)) of 100%, a kinase still bound, per cent of control (CSNK1D (human)) of 77% and a kinase still bound, per cent of control [1] of 70%. For the same compound, the kinase still bound, per cent of control (CDC42BPG (human)) was 100%, the kinase still bound, per cent of control (DCLK2 (human)) was 100% and the kinase still bound, per cent of control (DMPK (human)) was 100%. The kinase still bound, per cent of control (MAPK8 (human)) was 100%, the kinase still bound, per cent of control (AKT2 (human)) was 83% and the kinase still bound, per cent of control (EGFR (human)) was 100%. For the same compound, the kinase still bound, per cent of control (ABL1 (human)) was 100%, the kinase still bound, per cent of control (RET (human)) was 52% and the kinase still bound, per cent of control (ULK2 (human)) was 86%. It also gave a kinase still bound, per cent of control (INSR (human)) of 86%, a kinase still bound, per cent of control (CLK4 (human)) of 100% and a kinase still bound, per cent of control (NEK3 (human)) of 78%. For the same compound, the kinase still bound, per cent of control (NUAK2 (human)) was 100%, the kinase still bound, per cent of control (LYN (human)) was 35% and the kinase still bound, per cent of control (PRKD2 (human)) was 100%. For the same compound, the kinase still bound, per cent of control [2] was 100%, the kinase still bound, per cent of control (PRKCI (human)) was 100% and the kinase still bound, per cent of control (HIPK4 (human)) was 78%. It also gave a kinase still bound, per cent of control (CDK9 (human)) of 98%, a kinase still bound, per cent of control (CDK13 (human)) of 71% and a kinase still bound, per cent of control (OXSR1 (human)) of 100%. It also gave a kinase still bound, per cent of control (AKT1 (human)) of 81%, a kinase still bound, per cent of control (EPHB1 (human)) of 96% and a kinase still bound, per cent of control (STK24 (human)) of 100%. It also gave a kinase still bound, per cent of control (ROS1 (human)) of 78%, a kinase still bound, per cent of control (MYLK (human)) of 100% and a kinase still bound, per cent of control [3] of 58%. For the same compound, the kinase still bound, per cent of control (HIPK3 (human)) was 100%, the kinase still bound, per cent of control (BMX (human)) was 100% and the kinase still bound, per cent of control (ALK (human)) was 100%. It also gave a kinase still bound, per cent of control (MAP3K11 (human)) of 83%, a kinase still bound, per cent of control (KDR (human)) of 100% and a kinase still bound, per cent of control (PRKCD (human)) of 100%. The kinase still bound, per cent of control (STK35 (human)) was 100% and the kinase still bound, per cent of control (HIPK2 (human)) was 100%.
